pIC50: −log10 of the molar value.

The target of experiment [1] is T1, Protein deacetylase HDAC6 (Homo sapiens, UniProt Q9UBN7).
T1 sequence (Q9UBN7 whole entry): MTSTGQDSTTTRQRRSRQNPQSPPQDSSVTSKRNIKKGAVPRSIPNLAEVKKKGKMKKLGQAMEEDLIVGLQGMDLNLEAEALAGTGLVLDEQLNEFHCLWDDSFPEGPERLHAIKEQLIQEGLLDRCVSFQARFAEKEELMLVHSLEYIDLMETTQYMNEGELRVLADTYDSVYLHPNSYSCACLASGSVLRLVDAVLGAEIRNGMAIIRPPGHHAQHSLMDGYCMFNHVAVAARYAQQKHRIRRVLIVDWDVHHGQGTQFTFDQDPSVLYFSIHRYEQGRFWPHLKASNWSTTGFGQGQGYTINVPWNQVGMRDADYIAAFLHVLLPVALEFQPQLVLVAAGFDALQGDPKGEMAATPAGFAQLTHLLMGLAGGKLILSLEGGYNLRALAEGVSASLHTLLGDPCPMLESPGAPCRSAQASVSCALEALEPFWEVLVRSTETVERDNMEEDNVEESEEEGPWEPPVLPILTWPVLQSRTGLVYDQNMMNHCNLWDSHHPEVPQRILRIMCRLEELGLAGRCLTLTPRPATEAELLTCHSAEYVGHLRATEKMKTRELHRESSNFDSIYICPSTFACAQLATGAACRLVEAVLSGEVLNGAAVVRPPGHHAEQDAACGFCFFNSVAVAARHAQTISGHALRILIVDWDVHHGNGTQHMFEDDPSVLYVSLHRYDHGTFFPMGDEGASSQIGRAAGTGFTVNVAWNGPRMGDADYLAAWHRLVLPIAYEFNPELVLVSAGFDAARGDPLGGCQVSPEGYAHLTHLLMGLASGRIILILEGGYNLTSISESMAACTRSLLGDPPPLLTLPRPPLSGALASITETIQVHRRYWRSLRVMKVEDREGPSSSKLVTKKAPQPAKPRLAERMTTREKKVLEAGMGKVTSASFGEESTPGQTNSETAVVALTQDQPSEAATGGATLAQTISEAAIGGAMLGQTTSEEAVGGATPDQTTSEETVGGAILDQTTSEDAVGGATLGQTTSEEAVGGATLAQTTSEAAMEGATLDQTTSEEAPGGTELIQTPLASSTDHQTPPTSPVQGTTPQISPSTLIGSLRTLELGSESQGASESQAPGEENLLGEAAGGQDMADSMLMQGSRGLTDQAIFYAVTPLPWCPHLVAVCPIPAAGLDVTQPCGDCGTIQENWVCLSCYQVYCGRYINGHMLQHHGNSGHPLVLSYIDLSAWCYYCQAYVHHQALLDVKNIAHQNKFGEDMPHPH
Briefly: Inhibition of HDAC6.

In experiment [2] the target is T2, NAD-dependent protein deacetylase sirtuin-3, mitochondrial (Homo sapiens, UniProt Q9NTG7).
T2 sequence (Q9NTG7 whole entry): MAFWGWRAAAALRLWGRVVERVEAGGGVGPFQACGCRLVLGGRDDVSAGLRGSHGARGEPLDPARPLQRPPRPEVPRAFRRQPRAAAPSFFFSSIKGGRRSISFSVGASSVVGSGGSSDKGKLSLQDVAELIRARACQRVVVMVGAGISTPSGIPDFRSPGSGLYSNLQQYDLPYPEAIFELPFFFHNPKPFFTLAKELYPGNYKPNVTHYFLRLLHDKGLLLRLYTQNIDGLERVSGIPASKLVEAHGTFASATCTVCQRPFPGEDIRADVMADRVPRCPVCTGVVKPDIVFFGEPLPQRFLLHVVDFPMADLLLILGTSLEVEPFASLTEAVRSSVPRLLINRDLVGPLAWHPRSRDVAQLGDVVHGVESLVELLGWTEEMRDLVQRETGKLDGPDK
The experiment in a line: Inhibition of human recombinant SIRT3 using Fluor de Lys-SIRT as substrate incubated for 60 mins prior to substrate addition measured after 60 mins by fluorimetric analysis.

Experiment [3] concerns the target T3, Polyamine deacetylase HDAC10 (Homo sapiens, UniProt Q969S8).
T3 sequence (Q969S8 whole entry): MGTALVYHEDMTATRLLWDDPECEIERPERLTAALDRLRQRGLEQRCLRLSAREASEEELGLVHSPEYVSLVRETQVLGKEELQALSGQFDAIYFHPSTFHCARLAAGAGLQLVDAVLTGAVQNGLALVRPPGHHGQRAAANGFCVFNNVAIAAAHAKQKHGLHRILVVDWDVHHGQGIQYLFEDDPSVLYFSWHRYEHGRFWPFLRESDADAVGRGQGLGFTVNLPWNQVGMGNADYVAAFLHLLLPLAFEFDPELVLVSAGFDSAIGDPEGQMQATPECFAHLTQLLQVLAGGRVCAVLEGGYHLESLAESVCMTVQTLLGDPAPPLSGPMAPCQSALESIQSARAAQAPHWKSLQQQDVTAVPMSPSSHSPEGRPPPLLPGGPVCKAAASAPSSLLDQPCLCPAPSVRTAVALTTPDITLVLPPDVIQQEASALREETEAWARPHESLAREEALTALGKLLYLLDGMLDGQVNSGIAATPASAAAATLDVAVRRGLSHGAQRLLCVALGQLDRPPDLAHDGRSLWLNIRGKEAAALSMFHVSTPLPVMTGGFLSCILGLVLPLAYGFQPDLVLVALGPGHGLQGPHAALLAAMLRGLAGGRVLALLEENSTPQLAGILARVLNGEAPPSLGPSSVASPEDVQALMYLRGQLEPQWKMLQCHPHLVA
Briefly: Inhibition of HDAC10.

Experiment [4] deals with Histone deacetylase 2 (Homo sapiens, UniProt Q92769). The experiment in a line: Inhibition of HDAC2.
Histone deacetylase 2, sequence (Q92769 whole entry): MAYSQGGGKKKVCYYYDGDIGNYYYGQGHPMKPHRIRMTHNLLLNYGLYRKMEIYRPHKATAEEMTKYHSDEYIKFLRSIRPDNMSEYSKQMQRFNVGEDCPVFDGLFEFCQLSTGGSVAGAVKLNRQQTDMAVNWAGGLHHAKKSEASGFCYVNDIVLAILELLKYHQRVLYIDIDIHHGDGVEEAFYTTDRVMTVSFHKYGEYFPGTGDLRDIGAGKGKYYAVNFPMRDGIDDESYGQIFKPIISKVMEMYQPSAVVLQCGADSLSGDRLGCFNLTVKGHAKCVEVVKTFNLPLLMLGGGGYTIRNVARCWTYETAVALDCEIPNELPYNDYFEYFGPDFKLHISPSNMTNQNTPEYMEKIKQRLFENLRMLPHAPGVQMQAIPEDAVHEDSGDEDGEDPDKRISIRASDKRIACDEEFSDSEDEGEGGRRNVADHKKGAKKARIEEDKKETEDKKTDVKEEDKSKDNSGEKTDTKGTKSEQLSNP
The target in experiment [5] is Histone deacetylase 1 (Homo sapiens, UniProt Q13547). The experiment in a line: Inhibition of HDAC1.
Histone deacetylase 1, sequence (Q13547 whole entry): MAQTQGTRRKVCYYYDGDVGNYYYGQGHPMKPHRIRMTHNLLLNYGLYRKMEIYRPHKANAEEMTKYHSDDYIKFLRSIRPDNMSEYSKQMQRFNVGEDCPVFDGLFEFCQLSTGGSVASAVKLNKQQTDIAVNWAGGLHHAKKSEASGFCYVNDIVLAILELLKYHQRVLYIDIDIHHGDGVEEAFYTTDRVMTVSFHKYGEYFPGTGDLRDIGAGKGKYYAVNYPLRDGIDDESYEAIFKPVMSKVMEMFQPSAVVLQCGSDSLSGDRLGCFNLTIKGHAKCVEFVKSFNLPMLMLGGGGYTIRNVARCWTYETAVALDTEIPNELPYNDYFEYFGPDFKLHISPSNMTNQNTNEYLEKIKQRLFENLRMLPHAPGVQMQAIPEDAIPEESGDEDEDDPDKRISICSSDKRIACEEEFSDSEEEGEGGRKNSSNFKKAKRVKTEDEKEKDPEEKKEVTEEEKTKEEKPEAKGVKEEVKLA
For experiment [6], the target named is Histone deacetylase 4 (Homo sapiens, UniProt P56524). The experiment in a line: Inhibition of HDAC4.
Histone deacetylase 4, sequence (P56524 whole entry): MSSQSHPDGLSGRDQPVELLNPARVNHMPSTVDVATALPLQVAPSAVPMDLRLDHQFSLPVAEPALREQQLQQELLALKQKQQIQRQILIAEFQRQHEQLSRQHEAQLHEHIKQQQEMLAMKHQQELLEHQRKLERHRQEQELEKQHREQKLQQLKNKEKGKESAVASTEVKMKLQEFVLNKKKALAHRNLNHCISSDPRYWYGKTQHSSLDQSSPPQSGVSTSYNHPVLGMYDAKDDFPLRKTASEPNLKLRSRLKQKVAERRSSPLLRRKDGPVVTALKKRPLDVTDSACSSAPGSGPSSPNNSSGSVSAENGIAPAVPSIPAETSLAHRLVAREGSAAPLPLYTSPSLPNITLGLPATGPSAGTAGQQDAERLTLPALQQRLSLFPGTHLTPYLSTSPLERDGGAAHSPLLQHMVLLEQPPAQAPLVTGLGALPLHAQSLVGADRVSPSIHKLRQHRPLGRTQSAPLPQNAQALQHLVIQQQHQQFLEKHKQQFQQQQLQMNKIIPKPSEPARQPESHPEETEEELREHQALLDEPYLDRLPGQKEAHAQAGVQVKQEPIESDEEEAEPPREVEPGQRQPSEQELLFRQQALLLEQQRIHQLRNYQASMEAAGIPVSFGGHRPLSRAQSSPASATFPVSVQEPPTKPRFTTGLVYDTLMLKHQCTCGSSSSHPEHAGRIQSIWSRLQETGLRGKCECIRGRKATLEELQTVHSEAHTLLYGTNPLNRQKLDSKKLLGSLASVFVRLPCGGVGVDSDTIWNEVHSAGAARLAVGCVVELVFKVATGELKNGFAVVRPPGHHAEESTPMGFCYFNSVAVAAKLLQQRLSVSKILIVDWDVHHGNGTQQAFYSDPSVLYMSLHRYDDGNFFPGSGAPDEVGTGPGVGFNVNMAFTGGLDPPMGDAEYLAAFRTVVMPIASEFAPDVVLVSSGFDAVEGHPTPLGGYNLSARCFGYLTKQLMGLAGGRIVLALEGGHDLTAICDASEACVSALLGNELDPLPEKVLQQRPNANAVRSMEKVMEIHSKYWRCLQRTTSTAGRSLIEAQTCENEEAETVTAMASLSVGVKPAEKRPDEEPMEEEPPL

By pIC50 is commonly meant the negative decadic logarithm of the IC50, by convention in mol/L. As for `NC(=O)c1ccccc1Nc1cccc(OCCc2ccccc2)c1`, the negative-log IC50 (pIC50) in experiment [1] is less than 4.52; in experiment [2] it was less than 3.52; in experiment [3], less than 4.52; in experiment [4], less than 4.52; in experiment [5], less than 4.52; in experiment [6] it was less than 4.52.

Values taken from ChEMBL document CHEMBL2150931, “Design, synthesis, and biological activity of a novel series of human sirtuin-2-selective inhibitors” (J Med Chem, 2012).
